Experimental data: ChEMBL document CHEMBL1144064, “Biological evaluation of proanthocyanidin dimers and related polyphenols” (J Nat Prod, 1999)
Values after ≈ are worked out from the molar mass of the structure shown. Active and inactive are the calls of the source. No cut-off for these calls is given here.

Columns and labels:
[1] = Antioxidant activity assessed as superoxide radical anion scavenging activity; assay type: functional
Simplexvirus = assay: Antiviral activity against HSV up to 200 ug/mL by extracellular virucidal assay; assay type: functional, organism-based
[2] = Cytotoxicity against human MT4 cells by MTT assay; assay type: cell-based
[3] = Selectivity index, ratio of CC50 for human MT4 cells to IC50 for HIV infected in human MT4 cells; assay type: functional
[4] = tested on: Human immunodeficiency virus; assay: Antiviral activity against HIV infected in human MT4 cells assessed as inhibition of virus-induced cytopathic effect by MTT assay; assay type: functional, organism-based; details: Human immunodeficiency virus 1, MT4
Streptococcus pyogenes = assay: Antimicrobial activity against Streptococcus pyogenes; assay type: functional
Candida albicans = assay: Antimicrobial activity against Candida albicans; assay type: functional
Staphylococcus aureus = assay: Antimicrobial activity against Staphylococcus aureus; assay type: functional
[5] = tested on: Mycolicibacterium fortuitum; assay: Antimicrobial activity against Mycobacterium fortuitum; assay type: functional
Enterobacter cloacae = assay: Antimicrobial activity against Enterobacter cloacae; assay type: functional
Salmonella paratyphi = assay: Antimicrobial activity against Salmonella paratyphi; assay type: functional, Salmonella enterica subsp. enterica serovar Paratyphi A; details: Salmonella enterica
Pseudomonas aeruginosa = assay: Antimicrobial activity against Pseudomonas aeruginosa; assay type: functional
Escherichia coli = assay: Antimicrobial activity against Escherichia coli; assay type: functional
[6] = Modulation of classical complement pathway system assessed as hemoglobin release by spectrophotometry
[7] = Modulation of alternative complement pathway system assessed as hemoglobin release by spectrophotometry

SMILES	IC50 [1] [µM]	CC50 [2] [µg/mL]	Ratio CC50/IC50 [3]	IC50 [4] [µg/mL]	MBC (Candida albicans) [µg/mL]	MIC (Candida albicans) [µg/mL]	MBC (Staphylococcus aureus) [µg/mL]	MIC (Staphylococcus aureus) [µg/mL]	MBC [5] [µg/mL]	MIC [5] [µg/mL]	MBC (Enterobacter cloacae) [µg/mL]	MIC (Enterobacter cloacae) [µg/mL]	MBC (Salmonella paratyphi) [µg/mL]	MIC (Salmonella paratyphi) [µg/mL]	MBC (Pseudomonas aeruginosa) [µg/mL]	MIC (Pseudomonas aeruginosa) [µg/mL]	MBC (Escherichia coli) [µg/mL]	MIC (Escherichia coli) [µg/mL]	IC50 [6] [µM]	Activity [7]	also measured
Oc1cc(O)c2c(c1)O[C@H](c1ccc(O)c(O)c1)[C@@H](O)[C@@H]2c1c(O)cc(O)c2c1O[C@H](c1ccc(O)c(O)c1)[C@H](O)C2	30	0.3 (≈ 0.519 µM)	<1	> 0.3	> 100	> 100	> 100	> 100	> 100	> 100	> 100	> 100	> 100	> 100	> 100	> 100	> 100	> 100	45.5	inactive	Activity (Simplexvirus): inactive; MBC (Streptococcus pyogenes): 50 µg/mL (≈ 86.4 µM); MIC (Streptococcus pyogenes): 25 µg/mL (≈ 43.2 µM)
Oc1cc(O)c2c(c1)O[C@H](c1ccc(O)c(O)c1)[C@@H](O)[C@@H]2c1c(O)cc2c(c1O)C[C@@H](O)[C@@H](c1ccc(O)c(O)c1)O2	32.9	127 (≈ 219 µM)	8	19.6 (≈ 33.9 µM)	> 100	> 100	> 100	> 100	> 100	> 100	> 100	> 100	> 100	> 100	> 100	> 100	> 100	> 100	19.7	–	Activity (Simplexvirus): inactive; IC50 [7]: 83.7 µM
Oc1cc(O)c2c(c1)O[C@H](c1cc(O)c(Oc3cc(O)c4c(c3)O[C@H](c3cc(O)c(O)c(O)c3)[C@H](O)C4)c(O)c1)[C@@H](O)C2	2	–	–	–	> 100	> 100	> 100	> 100	> 100	> 100	> 100	> 100	> 100	> 100	> 100	> 100	> 100	> 100	14.6	–	IC50 [7]: 86 µM
Oc1cc(O)c2c(c1)O[C@H](c1ccc(O)c(O)c1)[C@@H](O)[C@@H]2c1c(O)cc(O)c2c1O[C@H](c1ccc(O)c(O)c1)[C@@H](O)C2	41.3	118 (≈ 204 µM)	5	27 (≈ 46.7 µM)	> 100	> 100	> 100	> 100	> 100	> 100	> 100	> 100	> 100	> 100	> 100	> 100	> 100	> 100	37.7	inactive	Activity (Simplexvirus): inactive
Oc1cc(O)c2c(c1)O[C@H](c1ccc(O)c(O)c1)[C@@H](O)[C@@H]2c1c(O)cc2c(c1O)C[C@H](O)[C@@H](c1ccc(O)c(O)c1)O2	27.3	141 (≈ 244 µM)	5	29.9 (≈ 51.7 µM)	> 100	> 100	> 100	> 100	> 100	> 100	> 100	> 100	> 100	> 100	> 100	> 100	> 100	> 100	18.5	inactive	Activity (Simplexvirus): inactive; MBC (Streptococcus pyogenes): 100 µg/mL (≈ 173 µM); MIC (Streptococcus pyogenes): 100 µg/mL (≈ 173 µM)
Oc1cc(O)c2c(c1)O[C@H](c1ccc(O)c(O)c1)[C@H](O)[C@H]2c1c(O)cc2c(c1O)C[C@@H](O)[C@@H](c1ccc(O)c(O)c1)O2	11.4	53.5 (≈ 92.5 µM)	9	8.3 (≈ 14.3 µM)	> 100	> 100	> 100	> 100	> 100	> 100	> 100	> 100	> 100	> 100	> 100	> 100	> 100	> 100	51.7	inactive	Activity (Simplexvirus): inactive; MBC (Streptococcus pyogenes): 100 µg/mL (≈ 173 µM); MIC (Streptococcus pyogenes): 100 µg/mL (≈ 173 µM)
O=C1c2c(O)cc(O)cc2O[C@H](c2ccc(O)c(O)c2)[C@H]1O [(+)-TAXIFOLIN]	24.2	25.4 (≈ 83.5 µM)	<1	> 25.4	> 100	> 100	> 100	> 100	> 100	> 100	> 100	> 100	> 100	> 100	> 100	> 100	> 100	> 100	850	inactive	Activity (Simplexvirus): inactive
Oc1cc(O)c2c(c1)O[C@H](c1ccc(O)c(O)c1)[C@H](O)C2 [(-)-EPICATECHIN]	18.3	136 (≈ 469 µM)	4	34.1 (≈ 117 µM)	> 100	> 100	> 100	> 100	> 100	> 100	> 100	> 100	> 100	> 100	> 100	> 100	> 100	> 100	656	inactive	–
Oc1cc(O)c2c(c1)O[C@H](c1ccc(O)c(O)c1)[C@@H](O)C2 [CIANIDANOL]	13.1	86.8 (≈ 299 µM)	<1	> 86.8	> 100	> 100	> 100	> 100	> 100	> 100	> 100	> 100	> 100	> 100	> 100	> 100	> 100	> 100	647	inactive	–
Oc1cc(O)c2c(c1)O[C@H](c1ccc(O)c(O)c1)[C@H](O)[C@H]2c1c(O)cc(O)c2c1O[C@H](c1ccc(O)c(O)c1)[C@@H](O)C2 [PROCYANIDIN B1]	–	–	–	–	> 100	> 100	> 100	> 100	> 100	> 100	> 100	> 100	> 100	> 100	> 100	> 100	> 100	> 100	31.3	–	IC50 [7]: 72 µM
O=C(/C=C/c1ccc(O)c(O)c1)O[C@H](Cc1ccc(O)c(O)c1)C(=O)O [ROSMARINIC ACID]	–	–	–	–	–	–	–	–	–	–	–	–	–	–	–	–	–	–	21.9	–	IC50 [7]: 408 µM
Cc1cn([C@H]2C[C@H](N=[N+]=[N-])[C@@H](CO)O2)c(=O)[nH]c1=O [ZIDOVUDINE]	–	2.58 (≈ 9.66 µM)	–	0.0002 (≈ 0.000748 µM)	–	–	–	–	–	–	–	–	–	–	–	–	–	–	–	–	–
